In the supplement of paper PMC10307832:

What was measured:
Test in all cases: relative viability (nuclei count vs DMSO), 5 days (fraction); higher = more cells survive
NCI-H2023 = test system: NCI-H2023
In short: (§1)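 Lung cancer cell lines in 1536-well plates got either a single drug or a fixed anchor-drug dose together with five library-drug doses (not always all listed) in √10 steps, by pin tool, on the day after seeding. Nuclei were counted after 5 days, and relative viability is the treated-to-vehicle ratio of nuclei counts. Values are medians of duplicate plates.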

NCI-H2405 = test system: NCI-H2405
In short: as §1

SW 1573 = test system: SW 1573
In short: as §1

NCI-H2009 = test system: NCI-H2009
In short: as §1

NCI-H520 = test system: NCI-H520
In short: as §1

NCI-H2347 = test system: NCI-H2347
In short: as §1

NCI-H1793 = test system: NCI-H1793
In short: as §1

NCI-H441 = test system: NCI-H441
In short: as §1

LOU-NH91 = test system: LOU-NH91
In short: as §1

NCI-H650 = test system: NCI-H650
In short: as §1

ChaGo-K-1 = test system: ChaGo-K-1
In short: as §1

EMC-BAC-2 = test system: EMC-BAC-2
In short: as §1

NCI-H1437 = test system: NCI-H1437
In short: as §1

SW 900 = test system: SW 900
In short: as §1

NCI-H2170 = test system: NCI-H2170
In short: as §1

HOP-62 = test system: HOP-62
In short: as §1

HCC-44 = test system: HCC-44
In short: as §1

NCI-H460 = test system: NCI-H460
In short: as §1

NCI-H727 = test system: NCI-H727
In short: as §1

NCI-H647 = test system: NCI-H647
In short: as §1

EPLC-272H = test system: EPLC-272H
In short: as §1

NCI-H2126 = test system: NCI-H2126
In short: as §1

COCC1(CO)C(=O)C2CCN1CC2 (stereo not given) [PRIMA-1MET] + CC(=O)c1c(C)c2cnc(Nc3ccc(N4CCNCC4)cn3)nc2n(C2CCCC2)c1=O [Palbociclib] (partner 0.5 µM)
relative viability (NCI-H2023; first compound 0.2 µM): 0.352 | relative viability (NCI-H2023; first compound 0.6325 µM): 0.379 | relative viability (NCI-H2023; first compound 2 µM): 0.422 | relative viability (NCI-H2023; first compound 6.325 µM): 0.365 | relative viability (NCI-H2023; first compound 20 µM): 0.295 | relative viability (NCI-H2405; first compound 0.2 µM): 0.487 | relative viability (NCI-H2405; first compound 0.6325 µM): 0.539 | relative viability (NCI-H2405; first compound 6.325 µM): 0.518 | relative viability (NCI-H2405; first compound 20 µM): 0.24 | relative viability (SW 1573; first compound 0.2 µM): 0.456 | relative viability (SW 1573; first compound 0.6325 µM): 0.317 | relative viability (SW 1573; first compound 2 µM): 0.345 | relative viability (SW 1573; first compound 6.325 µM): 0.0953 | relative viability (SW 1573; first compound 20 µM): 0.0194 | relative viability (NCI-H2009; first compound 0.2 µM): 0.185 | relative viability (NCI-H2009; first compound 0.6325 µM): 0.251 | relative viability (NCI-H2009; first compound 2 µM): 0.112 | relative viability (NCI-H2009; first compound 6.325 µM): 0.215 | relative viability (NCI-H2009; first compound 20 µM): 0.0008 | relative viability (NCI-H520; first compound 0.2 µM): 0.249 | relative viability (NCI-H520; first compound 2 µM): 0.202 | relative viability (NCI-H520; first compound 6.325 µM): 0.216 | relative viability (NCI-H520; first compound 20 µM): 0.142 | relative viability (NCI-H2347; first compound 0.2 µM): 0.451 | relative viability (NCI-H2347; first compound 0.6325 µM): 0.317 | relative viability (NCI-H2347; first compound 2 µM): 0.365 | relative viability (NCI-H2347; first compound 6.325 µM): 0.42 | relative viability (NCI-H2347; first compound 20 µM): 0.313 | relative viability (NCI-H1793; first compound 0.2 µM): 0.326 | relative viability (NCI-H1793; first compound 0.6325 µM): 0.32 | relative viability (NCI-H1793; first compound 6.325 µM): 0.332 | relative viability (NCI-H1793; first compound 20 µM): 0.331 | relative viability (NCI-H441; first compound 0.2 µM): 0.221 | relative viability (NCI-H441; first compound 0.6325 µM): 0.227 | relative viability (NCI-H441; first compound 2 µM): 0.192 | relative viability (NCI-H441; first compound 6.325 µM): 0.201 | relative viability (NCI-H441; first compound 20 µM): 0.205 | relative viability (LOU-NH91; first compound 0.2 µM): 0.507 | relative viability (LOU-NH91; first compound 0.6325 µM): 0.514 | relative viability (LOU-NH91; first compound 2 µM): 0.54 | relative viability (LOU-NH91; first compound 6.325 µM): 0.508 | relative viability (LOU-NH91; first compound 20 µM): 0.452 | relative viability (NCI-H650; first compound 0.2 µM): 0.317 | relative viability (NCI-H650; first compound 0.6325 µM): 0.289 | relative viability (NCI-H650; first compound 2 µM): 0.367 | relative viability (NCI-H650; first compound 6.325 µM): 0.338 | relative viability (NCI-H650; first compound 20 µM): 0.0905 | relative viability (ChaGo-K-1; first compound 0.2 µM): 0.989 | relative viability (ChaGo-K-1; first compound 0.6325 µM): 0.897 | relative viability (ChaGo-K-1; first compound 2 µM): 0.917 | relative viability (ChaGo-K-1; first compound 6.325 µM): 0.906 | relative viability (ChaGo-K-1; first compound 20 µM): 0.836 | relative viability (EMC-BAC-2; first compound 0.2 µM): 0.586 | relative viability (EMC-BAC-2; first compound 0.6325 µM): 0.466 | relative viability (EMC-BAC-2; first compound 2 µM): 0.478 | relative viability (EMC-BAC-2; first compound 6.325 µM): 0.503 | relative viability (EMC-BAC-2; first compound 20 µM): 0.499 | relative viability (NCI-H1437; first compound 0.2 µM): 0.322 | relative viability (NCI-H1437; first compound 0.6325 µM): 0.313 | relative viability (NCI-H1437; first compound 2 µM): 0.306 | relative viability (NCI-H1437; first compound 6.325 µM): 0.324 | relative viability (NCI-H1437; first compound 20 µM): 0.299 | relative viability (SW 900; first compound 0.2 µM): 0.601 | relative viability (SW 900; first compound 0.6325 µM): 0.564 | relative viability (SW 900; first compound 6.325 µM): 0.559 | relative viability (SW 900; first compound 20 µM): 0.0834 | relative viability (NCI-H2170; first compound 0.2 µM): 0.422 | relative viability (NCI-H2170; first compound 0.6325 µM): 0.36 | relative viability (NCI-H2170; first compound 2 µM): 0.391 | relative viability (NCI-H2170; first compound 6.325 µM): 0.449 | relative viability (NCI-H2170; first compound 20 µM): 0.379 | relative viability (HOP-62; first compound 0.2 µM): 0.549 | relative viability (HOP-62; first compound 0.6325 µM): 0.385 | relative viability (HOP-62; first compound 2 µM): 0.469 | relative viability (HOP-62; first compound 6.325 µM): 0.475 | relative viability (HOP-62; first compound 20 µM): 0.317 | relative viability (HCC-44; first compound 0.2 µM): 1.02 | relative viability (HCC-44; first compound 0.6325 µM): 0.873 | relative viability (HCC-44; first compound 2 µM): 0.95 | relative viability (HCC-44; first compound 6.325 µM): 0.954 | relative viability (HCC-44; first compound 20 µM): 1.03 | relative viability (NCI-H460; first compound 0.2 µM): 0.153 | relative viability (NCI-H460; first compound 0.6325 µM): 0.139 | relative viability (NCI-H460; first compound 2 µM): 0.168 | relative viability (NCI-H460; first compound 6.325 µM): 0.114 | relative viability (NCI-H460; first compound 20 µM): 0.0061 | relative viability (NCI-H727; first compound 0.2 µM): 0.629 | relative viability (NCI-H727; first compound 0.6325 µM): 0.584 | relative viability (NCI-H727; first compound 6.325 µM): 0.672 | relative viability (NCI-H727; first compound 20 µM): 0.379 | relative viability (NCI-H647; first compound 0.2 µM): 0.449 | relative viability (NCI-H647; first compound 0.6325 µM): 0.387 | relative viability (NCI-H647; first compound 2 µM): 0.276 | relative viability (NCI-H647; first compound 6.325 µM): 0.481 | relative viability (NCI-H647; first compound 20 µM): 0.42 | relative viability (EPLC-272H; first compound 0.2 µM): 0.312 | relative viability (EPLC-272H; first compound 0.6325 µM): 0.276 | relative viability (EPLC-272H; first compound 2 µM): 0.329 | relative viability (EPLC-272H; first compound 6.325 µM): 0.336 | relative viability (EPLC-272H; first compound 20 µM): 0.289 | relative viability (NCI-H2126; first compound 0.2 µM): 0.335 | relative viability (NCI-H2126; first compound 0.6325 µM): 0.336 | relative viability (NCI-H2126; first compound 2 µM): 0.321 | relative viability (NCI-H2126; first compound 6.325 µM): 0.372 | relative viability (NCI-H2126; first compound 20 µM): 0.326
